Source: PubChem BioAssay AID743394 (Broad Institute, 2014)
Active and inactive are the calls of the source.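 Rule for the calls: active = 40% activation versus positive control reached by fitted dose-response curve at or below highest valid tested dose; inconclusive = poor fit quality, or flat fit with activation between 30% and 70%; inactive = the rest.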

Assay: inactive X chromosome reactivation in XiGFP fibroblasts, dose response, imaging, 68-5-11 mouse fibroblasts, GFP, cherry-pick (AID 743394);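 note: sensitizer 5-aza-dC present in the wells at 0.5 mM final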
Conditions: 68-5-11 mouse fibroblast XiGFP reporter, % GFP-positive imaging, 3 d; at 19.5 µM (top of the series)

Structure (SMILES) | activation
O=c1[nH]c(=O)n(CCC2=CCCCC2)c(O)c1/C=N/Nc1ccccc1 | -0.002% (inactive)
COP(=S)(OC)Oc1ccc(Sc2ccc(OP(=S)(OC)OC)cc2)cc1 | 0.028% (inactive)

Same assay, conditions: 68-5-11 mouse fibroblast XiGFP reporter, % GFP-positive imaging, 3 d; at 19.5 µM (top of the series); cells co-treated with 5-aza-dC sensitizer; scaled: neutral wells 0, ellipticine wells 100

Structure (SMILES) | activation
O=C(c1cnccn1)N1CC(=O)N2[C@H](CO)[C@@H](c3ccc(-c4cccc(F)c4)cc3)[C@@H]2C1 | -0.014% (inactive)
CC(C)c1cc(C(=O)N/N=C/c2cccnc2)cs1 | 0.54% (inactive)
COc1ccc2c3c(n(C)c2c1)[C@H](CO)N(C(=O)CN1CCOCC1)CC31CCN(C(=O)Nc2cccc(F)c2)CC1 | -0.035% (inactive)
COc1ccccc1N(C)c1cc2c(c3c1ccn3C)C1CCC2C1 (stereo not drawn) | 0.146% (inactive)
CC1CCN(C(=O)Cn2nnc(-c3ccccc3)n2)CC1 | 0.315% (inactive)
COc1ccc(C2C(=O)c3ccccc3C2=Nc2ccc(Br)cc2)cc1 (stereo not drawn) | -0.066% (inactive)
CCOc1cccc(/C=N/NC(=S)Nc2cc(S(=O)(=O)N3CCOCC3)ccc2N2CCOCC2)c1O | 6.09% (inactive)
O=C(O)CSc1ncccn1 | -0.015% (inactive)
O=C1c2ccccc2C(=Cc2cccnc2)c2ccccc21 | 0.325% (inactive)
CCCCC(=O)N(C)c1c(CC)nc2c(OCC(=O)c3ccc(F)cc3)cccn12 | -0.039% (inactive)
COc1ccc(CCNC(=O)c2ccc([N+](=O)[O-])cc2)cc1 | -0.024% (inactive)
Nc1nnc(SCC(=O)c2ccc([N+](=O)[O-])cc2)s1 | 0.961% (inactive)
O=C(NCCO)/C(=C/c1ccco1)NC(=O)c1ccco1 | -0.047% (inactive)
O=C1CSC(c2cccnc2)N1Cc1ccc(Cl)cc1Cl (stereo not drawn) | -0.022% (inactive)
NC(=O)c1sc2nc3c(cc2c1N)CCCCCC3 | 0.065% (inactive)
Nc1ccccc1Nc1cc(-c2ccccc2)[nH]n1 | -0.047% (inactive)
COc1ccc2c3c([nH]c2c1)[C@H](CO)N(C(=O)C1CCCC1)CC31CN(Cc2nccs2)C1 | -0.007% (inactive)
COc1ccc2c3c(n(C)c2c1)[C@@H](CO)N(C(=O)NC(C)C)CC31CN(C(C)=O)C1 | 0.015% (inactive)
C=CCN(CC(O)c1cccc([N+](=O)[O-])c1)C(C)CCc1ccccc1 (stereo not drawn) | -0.039% (inactive)
COc1ccccc1CN1CC[C@H]2[C@H](CO)Nc3ccc(C#Cc4ccccc4)cc3[C@H]21 | 0% (inactive)
CCOC(=O)C1(Cc2ccccc2C)CCCN(C(=O)CSC)C1 (stereo not drawn) | -0.053% (inactive)
CC(=Nc1ccc(Cl)cc1N)c1c(O)cc(C)oc1=O | -0.044% (inactive)

Structure (SMILES) | activation
O=C(Nc1cccc(C(=O)O)c1)/C(=C\c1ccccc1)NC(=O)c1ccc(Br)o1 | 0.02% (inactive)
CN(C)c1ccc(NC2=C(Cl)C(=O)c3ccccc3C2=O)cc1 | -0.053% (inactive)
CC(=O)c1ccc(NC(=O)COC(=O)CCc2ccc(S(=O)(=O)N3CCOCC3)cc2)cc1 | 0.332% (inactive)
Cc1nnc(-c2ccc(N3CCCCCC3)c([N+](=O)[O-])c2)o1 | -0.007% (inactive)
CC(=O)Nc1ccc(NS(=O)(=O)c2ccc3c(c2)oc(=O)n3C)cc1 | 5.23% (inactive)
COc1ccc(CN(C)Cc2nc(Cc3ccccc3Cl)no2)cc1OC | -0.032% (inactive)
CCN(CC)CCCN=Cc1c(O)n(-c2cccc(C)c2)c(=O)c2ccccc12 | -0.005% (inactive)
Cc1ccc(NCc2nnc(SCC(=O)NNC(=O)Cc3ccccc3)n2C)cc1 | 0.012% (inactive)
C[C@@H]1ON(C)[C@H]2C[C@H]3c4cc(-c5cccc(F)c5)ccc4CCN3C(=O)[C@@H]12 | 0.187% (inactive)
O=C1C2C3C=CC(CNS(=O)(=O)c4ccccc4[N+](=O)[O-])(O3)C2C(=O)N1c1ccccc1 (stereo not drawn) | 0.059% (inactive)
Oc1cccc(/C=N/NC(=S)NCCN2CCOCC2)c1O | -0.016% (inactive)
NC(=NC(=O)c1cccc(C(F)(F)F)c1)c1ccc(C(F)(F)F)cn1 | 0.408% (inactive)
CCOCCCNC(=O)C(c1ccc(C)cc1)N(Cc1cccs1)C(=O)c1ccccn1 (stereo not drawn) | 0.035% (inactive)
CC(=O)Oc1ccc2c(=O)c(-c3ccccc3)coc2c1 | 0.086% (inactive)
O=C(c1ccc(S(=O)(=O)c2ccc(Cl)cc2)cc1)N1CCOCC1 | 0.117% (inactive)
CC(=O)N[C@@H](CC(=O)O)C(=O)O | -0.053% (inactive)
CCCOc1ccc(C(=O)Nc2ccc(CN3CCOCC3)cc2)cc1 | -0.053% (inactive)
CN(CC(=O)Nc1ccc(Cl)c(Cl)c1)CC(=O)Nc1ccc2c(c1)OCO2 | -0.047% (inactive)
CCOC(=O)c1ccc(NC(=O)C2CCC(CNc3c(N4CCOCC4)c(=O)c3=O)CC2)cc1 (stereo not drawn) | 0.016% (inactive)
Brc1ccc(-c2cn3ccccc3n2)cc1 | -0.039% (inactive)
CC1=Nc2ccccc2/C1=C\c1sc(Nc2ccc(C)cc2)nc1O | 0.535% (inactive)
COc1ccc(N2CCN(C(=O)c3cc4c(s3)-c3ccccc3OC4)CC2)cc1 | 0.457% (inactive)

Structure (SMILES) | activation
CCOC(=O)Nc1cc2c(c(N)n1)N=C(c1ccccc1)CN2 | -0.053% (inactive)
O=C1C=CC(=O)C(CNc2ccc(C(=O)OCc3ccccc3)cc2)=C1 | -0.05% (inactive)
CCOC(=O)C1=C(C)NC(=S)NC1/C=C/c1ccccc1 (stereo not drawn) | -0.024% (inactive)
CCOc1ccc(N2C(=O)CC(Sc3nc(O)c(CC)c(=O)[nH]3)C2=O)cc1 (stereo not drawn) | 0.001% (inactive)
O=[N+]([O-])/C=C/c1ccc2c(ccn2Cc2ccccc2)c1 | -0.06% (inactive)
CCOc1ccc(CCN2C(=S)N([C@@H](Cc3ccccc3)CN3CCC[C@@H]3CN3C(=S)NC[C@@H]3CC(C)C)C[C@@H]2Cc2ccccc2)cc1 | 0.011% (inactive)
CCOC(=O)N1CCN(C(=O)Cn2ccc3c(OC)cccc3c2=O)CC1 | 0.07% (inactive)
C/C(CC(=O)Nc1ccc(C)c(Cl)c1)=N\NC(=O)Cc1ccccc1 | -0.06% (inactive)
C/C(=N\NC(=O)c1ccccc1Cl)c1ccccn1 | 3.5% (inactive)
O=C(CSc1nc2ccccc2[nH]1)N/N=C/C=C/c1ccccc1[N+](=O)[O-] | 0.165% (inactive)
C[C@@H]1CN([C@H](C)CO)C(=O)c2cc(NS(=O)(=O)c3ccc(F)cc3)ccc2O[C@@H](C)CCCCO[C@@H]1CN(C)Cc1ccc2c(c1)OCO2 | 9.16% (inactive)
CCC(C(=O)Nc1cc(OC)c(NC(=O)c2ccccc2)cc1OC)c1ccccc1 (stereo not drawn) | -0.037% (inactive)
Cc1ccc(OCCN2CCN(CC(O)Cn3c4ccccc4c4ccccc43)CC2)cc1 (stereo not drawn) | 5.68% (inactive)
Cc1[nH]c2ccc(Br)cc2c(=O)c1CN1CCCCCC1 | -0.013% (inactive)
COc1ccc2c3c(n(C)c2c1)[C@@H](CO)N(Cc1ccccc1OC)CC31CCN(C)CC1 | 0.213% (inactive)
Cc1c(/C=N\NC(=O)c2cc3ccccc3o2)c2ccccc2n1C | -0.044% (inactive)
CCc1ccc(NS(=O)(=O)c2ccc3[nH]cc(C(=O)N4CCc5ccccc54)c(=O)c3c2)cc1 | -0.01% (inactive)
COc1ccc(NC(=O)C(=O)NCCC2CCCCN2S(=O)(=O)c2cccs2)cc1 (stereo not drawn) | 6.11% (inactive)
Nc1c(C(=O)O)cnn1-c1ccc([N+](=O)[O-])cc1 | 0.022% (inactive)
O=C(c1ccccc1Cl)N1CCSCCS1(=O)=O | 0.035% (inactive)
CCc1ccc(CN(C)C(=O)c2cc(S(=O)(=O)N3CCOCC3)ccc2N2CCCC2)cc1 | -0.007% (inactive)
CCN(CC(=O)Nc1sc2c(c1C#N)CCCC2)CC(=O)NC1CCS(=O)(=O)C1 (stereo not drawn) | -0.032% (inactive)

Structure (SMILES) | activation
Cc1ncsc1C(=O)Nc1cccc(C(F)(F)F)c1 | -0.075% (inactive)
C[C@H]1CN([C@@H](C)CO)C(=O)c2ccccc2-c2ccccc2CO[C@H]1CN(C)C(=O)[C@@H](Cc1ccccc1)N(C)C | 0% (inactive)
CSc1ccc(CNCC2CCCO2)cc1 (stereo not drawn) | 0.842% (inactive)
C/C=C/c1ccc(C2[C@H]3CNC[C@@H]2N3Cc2cc(-c3ccccc3)on2)cc1 (stereo partly drawn) | -0.031% (inactive)
COC(=O)Nc1ccc(S(=O)(=O)N2CCCC(C(=O)N3CCN(C)CC3)C2)cc1 (stereo not drawn) | 0.221% (inactive)
CC(C)N1CCc2c(sc(NC(=O)c3cc4cc([N+](=O)[O-])ccc4s3)c2C(N)=O)C1 | 7.43% (inactive)
C[C@H](CO)N1C[C@H](C)[C@H](CN(C)S(=O)(=O)c2ccccc2)Oc2ccc(NS(=O)(=O)c3ccc(Cl)cc3)cc2C1=O | 0.163% (inactive)
O=C1Nc2ccccc2/C1=C/c1ccccc1Cl | -0.034% (inactive)
O=C(O)/C=C/C(=O)Nc1ccc(-n2nccc2C(F)(F)F)cc1 | 1.34% (inactive)
[N-]=[N+]=CC(=O)C(O)(c1ccccc1)C(Cl)c1ccccc1 (stereo not drawn) | 0.034% (inactive)
O=C(NC1=C(NC2CCS(=O)(=O)C2)C(=O)c2ccccc2C1=O)c1ccccc1 (stereo not drawn) | -0.047% (inactive)
CS(=O)(=O)c1ccc(S(=O)CC(=O)OCc2ccccc2)c([N+](=O)[O-])c1 (stereo not drawn) | -0.127% (inactive)
Brc1cccc(CNCC2CCCO2)c1 (stereo not drawn) | 0.116% (inactive)
Cc1ccc(C)c(OCCC(=O)Nc2cc(S(=O)(=O)N3CCCCC3)ccc2C)c1 | -0.008% (inactive)
O=C(CCl)N=c1sccn1Cc1cccc2ccccc12 | -0.053% (inactive)
COc1cccc(C(=O)c2c(-c3ccccc3)ncc3cc(OC)c(OC)cc23)c1 | 0.006% (inactive)
O=C1N[C@H](Cc2ccccc2)COCc2cn(nn2)CC[C@@H]1Cc1ccccc1 | 0.033% (inactive)
O=C(COC(=O)COc1cccc(C(F)(F)F)c1)NC1CCS(=O)(=O)C1 (stereo not drawn) | -0.034% (inactive)
CN(C)C(=O)C[C@@H]1C=C[C@H](NS(=O)(=O)c2ccccc2)[C@@H](CO)O1 | 0.689% (inactive)

Same assay, conditions: 68-5-11 mouse fibroblast XiGFP reporter, % GFP-positive imaging, 3 d; at 21 µM (top of the series); cells co-treated with 5-aza-dC sensitizer; scaled: neutral wells 0, ellipticine wells 100

Structure (SMILES) | activation
Cc1noc(C)c1NC(=O)N(C)C[C@@H]1Oc2ccc(NC(=O)C3CC3)cc2CC(=O)N([C@@H](C)CO)C[C@@H]1C | -0.023% (inactive)
